Experimental data reported in ChEMBL document CHEMBL5143687, “Design, synthesis and biological evaluation of hydrogen sulfide-releasing isochroman-4-one derivatives as new antihypertensive agent candidates” (Bioorg Med Chem, 2022).

Columns and labels:
Aortic ring [1] = test: Vasorelaxant activity in Sprague-Dawley rat aortic rings assessed as reduction in noradrenaline-induced contractions at 10 uM relative to control; type: functional, Thoracic aorta; set-up: scale not given: the % may be the effect or the level left
Aortic ring [2] = test: Vasorelaxant activity in Sprague-Dawley rat aortic rings assessed as reduction in noradrenaline-induced contractions at 100 uM relative to control; type: functional, Thoracic aorta; set-up: scale not given: the % may be the effect or the level left
Aortic ring [3] = test: Vasorelaxant activity in Sprague-Dawley rat aortic rings assessed as reduction in noradrenaline-induced contractions; type: functional, tissue-based; details: Thoracic aorta, DDE = dose-dependent effect
Rattus norvegicus [4] = test: Antihypertensive activity in spontaneous hypertensive rat model assessed as systolic blood pressure at 80 mg/kg, po measured after 1 hr by tail cuff method (reference value: 186.1 +/- 4.6 mmHg); type: functional
Rattus norvegicus [5] = test: Antihypertensive activity in spontaneous hypertensive rat model assessed as systolic blood pressure at 80 mg/kg, po measured after 2 hr by tail cuff method (reference value: 186.1 +/- 4.6 mmHg); type: functional
Rattus norvegicus [6] = test: Antihypertensive activity in spontaneous hypertensive rat model assessed as systolic blood pressure at 80 mg/kg, po measured after 4 hr by tail cuff method (reference value: 186.1 +/- 4.6 mmHg); type: functional
Rattus norvegicus [7] = test: Antihypertensive activity in spontaneous hypertensive rat model assessed as systolic blood pressure at 80 mg/kg, po measured after 6 hr by tail cuff method (reference value: 186.1 +/- 4.6 mmHg); type: functional
Rattus norvegicus [8] = test: Antihypertensive activity in spontaneous hypertensive rat model assessed as systolic blood pressure at 80 mg/kg, po measured after 8 hr by tail cuff method (reference value: 186.1 +/- 4.6 mmHg); type: functional
[9] = Prodrug conversion in sodium phosphate buffer assessed as H2S release in presence of L-cysteine by UV-Vis spectrophotometry; type: ADME
CHO = test: Cytotoxicity against CHO cells assessed as cell viability at 100 uM after 24 hrs MTT assay; type: toxicity, cell-based, Cricetulus griseus; details: chinese hamster
Rattus norvegicus [10] = test: Antihypertensive activity in spontaneous hypertensive rat model assessed as systolic blood pressure at 40 mg/kg, po measured after 1 hr by tail cuff method (reference value: 186.1 +/- 4.6 mmHg); type: functional
Rattus norvegicus [11] = test: Antihypertensive activity in spontaneous hypertensive rat model assessed as systolic blood pressure at 40 mg/kg, po measured after 2 hr by tail cuff method (reference value: 186.1 +/- 4.6 mmHg); type: functional
Rattus norvegicus [12] = test: Antihypertensive activity in spontaneous hypertensive rat model assessed as systolic blood pressure at 40 mg/kg, po measured after 4 hr by tail cuff method (reference value: 186.1 +/- 4.6 mmHg); type: functional
Rattus norvegicus [13] = test: Antihypertensive activity in spontaneous hypertensive rat model assessed as systolic blood pressure at 40 mg/kg, po measured after 6 hr by tail cuff method (reference value: 186.1 +/- 4.6 mmHg); type: functional
Rattus norvegicus [14] = test: Antihypertensive activity in spontaneous hypertensive rat model assessed as systolic blood pressure at 40 mg/kg, po measured after 8 hr by tail cuff method (reference value: 186.1 +/- 4.6 mmHg); type: functional

Structure (SMILES)	Activity (Aortic ring [1]) [%]	Activity (Aortic ring [2]) [%]	also measured
[Na+].[SH-] [SODIUM HYDROSULFIDE]	18.7	52.9	–
COc1cc2c(cc1OCCCCCCOc1ccc(C(N)=S)cc1)C(=O)C(C)OC2 (centres undefined)	49.6	66.7	Activity (Aortic ring [3]): Dde; Activity (Rattus norvegicus [4]): 170.2 mmHg; Activity (Rattus norvegicus [5]): 137.4 mmHg; Activity (Rattus norvegicus [6]): 142.2 mmHg; Activity (Rattus norvegicus [7]): 153.6 mmHg; Activity (Rattus norvegicus [8]): 169.4 mmHg; Activity [9]: Active; Activity (CHO): Non-Toxic
COc1ccc2c(c1O)COC(C)C2=O (centres undefined)	4.3	50.7	–
CC1OCc2c(ccc(O)c2O)C1=O (racemic)	–	–	Activity (Rattus norvegicus [4]): 170.9 mmHg; Activity (Rattus norvegicus [5]): 165.4 mmHg; Activity (Rattus norvegicus [6]): 151.5 mmHg; Activity (Rattus norvegicus [7]): 140.1 mmHg; Activity (Rattus norvegicus [8]): 150.6 mmHg
COc1cc2c(cc1O)C(=O)C(C)OC2 (centres undefined)	0.4	6.5	–
COc1ccc2c(c1OCCCCCCCCCCCCOc1ccc(C(N)=S)cc1)COC(C)C2=O (centres undefined)	12.6	25	–
COc1ccc2c(c1OCCCCOc1ccc(C(N)=S)cc1)COC(C)C2=O (centres undefined)	2.9	35.1	–
COc1cc2c(cc1OCCCCCCCCOc1ccc(C(N)=S)cc1)C(=O)C(C)OC2 (centres undefined)	19.9	31.2	–
COc1ccc2c(c1OCCOc1ccc(C(N)=S)cc1)COC(C)C2=O (centres undefined)	19.8	31.4	–
COc1ccc2c(c1OCCCOc1ccc(C(N)=S)cc1)COC(C)C2=O (centres undefined)	3.7	15.7	–
COc1ccc2c(c1OCCCCCCCCOc1ccc(C(N)=S)cc1)COC(C)C2=O (centres undefined)	25	56.9	Activity (Aortic ring [3]): Dde; Activity [9]: Active; Activity (CHO): Non-Toxic
COc1ccc2c(c1OCCCOc1ccc(-c3cc(=S)ss3)cc1)COC(C)C2=O (centres undefined)	5.4	9.2	–
COc1cc2c(cc1OCCCCCOc1ccc(C(N)=S)cc1)C(=O)C(C)OC2 (centres undefined)	6.6	28.2	–
COc1cc2c(cc1OCCCCOc1ccc(C(N)=S)cc1)C(=O)C(C)OC2 (centres undefined)	5.1	4.3	–
COc1ccc2c(c1OCCCCCCOc1ccc(C(N)=S)cc1)COC(C)C2=O (centres undefined)	20	31.1	–
COc1cc2c(cc1OCCCCCCCCCCCCOc1ccc(C(N)=S)cc1)C(=O)C(C)OC2 (centres undefined)	2.2	12.5	–
COc1ccccc1N1CCN(CC(O)COc2cccc3ccccc23)CC1 (centres undefined) [NAFTOPIDIL]	–	–	Activity (Rattus norvegicus [10]): 161.4 mmHg; Activity (Rattus norvegicus [11]): 148.1 mmHg; Activity (Rattus norvegicus [12]): 153.7 mmHg; Activity (Rattus norvegicus [13]): 158.2 mmHg; Activity (Rattus norvegicus [14]): 170.5 mmHg
COc1cc2c(cc1OCCCOc1ccc(C(N)=S)cc1)C(=O)C(C)OC2 (centres undefined)	45.4	61.8	Activity (Aortic ring [3]): Dde; Activity (CHO): Non-Toxic
COc1ccc2c(c1OCCOc1ccc(-c3cc(=S)ss3)cc1)COC(C)C2=O (centres undefined)	5.5	18.2	–
NC(=S)c1ccc(O)cc1	1.7	17.3	–
COc1ccc2c(c1OCCCCCOc1ccc(C(N)=S)cc1)COC(C)C2=O (centres undefined)	30.2	55.4	Activity (Aortic ring [3]): Dde; Activity [9]: Active; Activity (CHO): Non-Toxic
